From patent publication US9066880B2, “Use of dihydrodehydrodiisoeugenol and preparations comprising dihydrodehydrodiisoeugenol” (SYMRISE AG, priority 2010, dated 2015)

Experiments:
[1] = tested on: peroxisome proliferator-activated receptor γ2 (PPARγ2); assay: Real Time-PCR, expression of differentiation marker PPARγ2 in 3T3-L1-cells; assay type: cell-based, mouse; settings: fold induction compared to hormone mix stimulation (set equal to one)
Experimental: (§1) 3T3-L1-cells (mouse embryonic fibroblast-like preadipocytes cell line) were propagated in Dulbecco's Modified Eagle Medium (DMEM), enriched with 10% newborn calf serum (CS) at 37° C. and 5% CO2 and seeded in 12-well plates for gene expression analysis. After reaching confluence at day −2, the differentiation was induced by changing medium at day 0 to DMEM with 10% fetal calf serum (FCS) containing a hormone mix (HM) of 1 μg/ml insulin, 0.25 μM dexamethasone (Dex) and 0.5 mM 3-isobutyl-1-methylxanthine (IBMX). Compounds of interest such as compound of formula (I) are applied from day −2 (confluence of the cells) until day 2 using various concentrations. Medium is renewed every other day. At day 2, medium consisting of DMEM, 10% FCS and 1 μg/ml insulin is added. From day 4 on, only DMEM containing 10% FCS is used for further cultivation of cells. […]
(§2) Total RNA from cell culture samples was isolated using RNeasy Total RNA Kits (Qiagen, Hilden; Germany). The RNA concentration and purity was determined photometrically using 260/280 ratios (Biophotometer, Eppendorf, Hamburg, Germany). […] At least three independent experiments were performed with 2 determinations each and the mean value of these was calculated. […] Each sample was analyzed in duplicate employing the universal protocol over 46 cycles. […]

Cyclooxygenase-2 (COX-2) = target: T1, Cyclooxygenase-2 (COX-2) (Homo sapiens, UniProt P35354); assay: COX-2-Assay (in vitro), fluorometric ADHP/resorufin; assay type: biochemical; settings: average of at least 2 independent experiments
T1 sequence (P35354 18-604): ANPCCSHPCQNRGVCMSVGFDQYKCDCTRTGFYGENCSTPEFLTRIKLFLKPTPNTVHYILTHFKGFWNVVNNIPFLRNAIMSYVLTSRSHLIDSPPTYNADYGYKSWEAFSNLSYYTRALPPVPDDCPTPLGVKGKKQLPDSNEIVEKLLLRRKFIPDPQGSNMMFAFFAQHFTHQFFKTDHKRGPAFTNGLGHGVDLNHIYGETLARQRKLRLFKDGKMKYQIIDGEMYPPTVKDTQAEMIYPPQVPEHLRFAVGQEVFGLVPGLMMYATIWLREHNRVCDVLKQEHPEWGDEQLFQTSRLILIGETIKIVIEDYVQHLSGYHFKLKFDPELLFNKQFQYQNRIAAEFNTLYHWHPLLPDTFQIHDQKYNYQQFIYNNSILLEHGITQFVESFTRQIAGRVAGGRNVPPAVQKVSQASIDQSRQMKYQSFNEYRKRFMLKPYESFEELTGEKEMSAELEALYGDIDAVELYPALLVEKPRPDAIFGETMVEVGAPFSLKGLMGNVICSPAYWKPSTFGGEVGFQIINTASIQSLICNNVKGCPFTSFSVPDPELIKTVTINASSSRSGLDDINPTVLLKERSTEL
Description: Cyclooxygenase-2 (COX-2) in the presence of test substance is mixed with the fluorometric substrate 10-acetyl-3,7-dihydroxyphenoxanin (ADHP) and Heme. The reaction is started by addition of the substrate arachidonic acid.
COX-2 converts the arachidonic acid into the prostaglandin endoperoxide G2 (PGG2). PGG2 is reduced to the corresponding alcohol PGH2. During this reaction ADHP results in fluorescent resorufin. Resorufin is quantified at an extinction wavelength of 535 nm and an emission wavelength of 590 nm.
[formula] where • Resorufin test substance=Resorufin concentration of the wells with test substance and with COX-2 • Resorufin control=Resorufin concentration of the wells without test substance, but with COX-2 • Resorufin control without COX-2=Resoruf in concentration of the wells without test substance and without COX-2
From the inhibition of the COX-2[%] in a series of dilutions of tested samples the IC50 is calculated. This is the concentration at which the activity of the COX-2 is inhibited by 50%.

[2] = tested on: fatty acid binding protein 4 (FABP4); assay: Real Time-PCR, expression of differentiation marker FABP4 in 3T3-L1-cells; assay type: cell-based, mouse; settings: fold induction compared to hormone mix stimulation (set equal to one)
Experimental: as §1, §2

## CCCc1cc(OC)c2c(c1)C(C)C(c1ccc(O)c(OC)c1)O2 (centres unmarked) [compound of formula (I), 2-Methoxy-4-(7-methoxy-3-methyl-5-propyl-2,3-dihydro-benzofuran-2-yl)-phenol]
[1]; 1 μM
  Stimulation of expression at day 2, PPARγ2: 1.0
[1]; 10 μM
  Stimulation of expression at day 2, PPARγ2: 1.5
Cyclooxygenase-2 (COX-2)
  IC50 calculated from the inhibition of COX-2: 12.3 ppm
[2]; 1 μM
  Stimulation of expression at day 2, FABP4: 2.1
[2]; 10 μM
  Stimulation of expression at day 2, FABP4: 3.3
